In the supplement of paper PMC10307832:

What was measured:
Assay in all cases: relative viability (nuclei count vs DMSO), 5 days (fraction); higher = more cells survive
[1] = compound: C1=CC=C2C(=C1)C=CC(=C2SSC3=C(C=CC4=CC=CC=C43)O)O [IPA-3] + CC(=O)Nc1cccc(-n2c(=O)n(C3CC3)c(=O)c3c(Nc4ccc(I)cc4F)n(C)c(=O)c(C)c32)c1 [Trametinib] (partner 0.02 µM)
In short: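 Lung cancer cell lines in 1536-well plates were dosed by pin tool the day after seeding, either with one drug alone or with a fixed anchor-drug dose plus five library-drug doses (not always all listed) in √10 steps. After 5 days, cells were fixed and their nuclei stained in one step (final 0.05% Triton X-100, 1% formaldehyde, 1 ug/ml Hoechst), then counted on 4× images. Relative viability is the nuclei count in treated wells divided by that in vehicle wells. Values are medians of duplicate plates.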

[2] = compound: C1=CC=C2C(=C1)C=CC(=C2SSC3=C(C=CC4=CC=CC=C43)O)O [IPA-3]
In short: (§1)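 Cells of lung cancer lines were placed in 1536-well plates and kept overnight at 37 °C. Pinning then delivered five library-drug doses (not always all listed), spaced by √10, onto plates anchored with vehicle, and the cells were left 5 days without changing medium. One step fixed, permeabilised and stained them with Hoechst, and MetaXpress counted nuclei in 4× images. Viability, as a median over plates, is treated-well nuclei divided by vehicle-well nuclei, with acceptance only at control CV below 25% and at least one doubling.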

[3] = compound: Cc1ccc(-n2nc(C(C)(C)C)cc2NC(=O)Nc2ccc(OCCN3CCOCC3)c3ccccc23)cc1 [Doramapimod]
In short: as §1

[4] = compound: Cn1c(Nc2ccc(C(F)(F)F)cc2)nc2cc(Oc3ccnc(-c4ncc(C(F)(F)F)[nH]4)c3)ccc21 [RAF265]
In short: as §1

Cell Line: UMC-11
- relative viability ([1]; first compound 0.2 µM): 0.804
- relative viability ([1]; first compound 0.6325 µM): 0.666
- relative viability ([1]; first compound 2 µM): 0.677
- relative viability ([1]; first compound 6.325 µM): 0.6
- relative viability ([1]; first compound 20 µM): 0.794
- relative viability ([2]; 0.2 µM): 1.08
- relative viability ([2]; 0.6325 µM): 0.932
- relative viability ([2]; 2 µM): 0.967
- relative viability ([2]; 6.325 µM): 0.916
- relative viability ([2]; 20 µM): 1.09
- relative viability ([3]; 0.02 µM): 0.904
- relative viability ([3]; 0.06325 µM): 0.934
- relative viability ([3]; 0.2 µM): 0.956
- relative viability ([3]; 0.6325 µM): 0.782
- relative viability ([3]; 2 µM): 0.841
- relative viability ([4]; 0.01 µM): 0.975
- relative viability ([4]; 0.03162 µM): 0.95
- relative viability ([4]; 0.1 µM): 0.942
- relative viability ([4]; 0.3162 µM): 0.948
- relative viability ([4]; 1 µM): 0.872
